# Measurements taken from PubChem BioAssay AID2060599 (Molecular Pharmacology Branch, DTP, NCI, 2025).
# Values joined by “and” are separate entries in the source; they are usually repeats but may differ in a detail not shown here. Identical values can stand only once.
# Tested on: 817829-284-R-J1-PDC complex spheroids, viability
# Assay: Anticancer human tumor 817829-284-R-J1-PDC patient-derived colon adenocarcinoma cell line growth inhibition [CLK]
# Conditions: for viability, T/C: stronger effect = lower value
# In short: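 Multi-cell-type spheroids combined patient-derived tumor cells with HUVEC endothelial cells and human mesenchymal stem cells. Paired agents were dosed in half-log steps down from about clinical Cmax, or from 10 microM where Cmax was unknown.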
# [1] = curve of first compound, second compound 0.0316 µM
# [2] = curve of first compound, second compound 0.1 µM
# [3] = curve of first compound, second compound 0.316 µM
# [4] = curve of first compound, second compound 1 µM
# [5] = curve of first compound, second compound 3.16 µM
# [6] = curve of first compound, second compound 10 µM
# [7] = second compound 0.0316 µM, first compound 0.0316 µM
# [8] = second compound 0.0316 µM, first compound 0.1 µM
# [9] = second compound 0.0316 µM, first compound 0.316 µM
# [10] = second compound 0.0316 µM, first compound 1 µM
# [11] = second compound 0.0316 µM, first compound 3.16 µM
# [12] = second compound 0.0316 µM, first compound 10 µM
# [13] = second compound 0.1 µM, first compound 0.0316 µM
# [14] = second compound 0.1 µM, first compound 0.1 µM
# [15] = second compound 0.1 µM, first compound 0.316 µM
# [16] = second compound 0.1 µM, first compound 1 µM
# [17] = second compound 0.1 µM, first compound 3.16 µM
# [18] = second compound 0.1 µM, first compound 10 µM
# [19] = second compound 0.316 µM, first compound 0.0316 µM
# [20] = second compound 0.316 µM, first compound 0.1 µM
# [21] = second compound 0.316 µM, first compound 0.316 µM
# [22] = second compound 0.316 µM, first compound 1 µM
# [23] = second compound 0.316 µM, first compound 3.16 µM
# [24] = second compound 0.316 µM, first compound 10 µM
# [25] = second compound 1 µM, first compound 0.0316 µM
# [26] = second compound 1 µM, first compound 0.1 µM
# [27] = second compound 1 µM, first compound 0.316 µM
# [28] = second compound 1 µM, first compound 1 µM
# [29] = second compound 1 µM, first compound 3.16 µM
# [30] = second compound 1 µM, first compound 10 µM
# [31] = second compound 3.16 µM, first compound 0.0316 µM
# [32] = second compound 3.16 µM, first compound 0.1 µM
# [33] = second compound 3.16 µM, first compound 0.316 µM
# [34] = second compound 3.16 µM, first compound 1 µM
# [35] = second compound 3.16 µM, first compound 3.16 µM
# [36] = second compound 3.16 µM, first compound 10 µM
# [37] = second compound 10 µM, first compound 0.0316 µM
# [38] = second compound 10 µM, first compound 0.1 µM
# [39] = second compound 10 µM, first compound 0.316 µM
# [40] = second compound 10 µM, first compound 1 µM
# [41] = second compound 10 µM, first compound 3.16 µM
# [42] = second compound 10 µM, first compound 10 µM
# 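Also: spheroids exposed to the agents for seven days before readout.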
structure (smiles),measurement,setting,value
COC1C=CCC(C)C(C)S(=O)(=O)NC(=O)c2ccc3c(c2)N(CC2CCC21)CC1(CCCc2cc(Cl)ccc21)CO3 (stereo not drawn) + CNC(=O)c1ccc(Nc2nc(OC3CCCC3)c3c(-c4ccc5nc(C)oc5c4)c[nH]c3n2)c(OC)c1,IC50,[1],< 31.6 nM
same,IC50,[2],< 31.6 nM
same,IC50,[3],< 31.6 nM
same,IC50,[4],< 31.6 nM
same,IC50,[5],< 31.6 nM
same,IC50,[6],< 31.6 nM
same,"viability, T/C",[7],31.3%
same,"viability, T/C",[8],51.1%
same,"viability, T/C",[9],31.1%
same,"viability, T/C",[10],47.8%
same,"viability, T/C",[11],45.3%
same,"viability, T/C",[12],4.06%
same,"viability, T/C",[13],27.3%
same,"viability, T/C",[14],26.5%
same,"viability, T/C",[15],18.7%
same,"viability, T/C",[16],16.1%
same,"viability, T/C",[17],7.61%
same,"viability, T/C",[18],4.67%
same,"viability, T/C",[19],21.2%
same,"viability, T/C",[20],31.2%
same,"viability, T/C",[21],22.6%
same,"viability, T/C",[22],12.6%
same,"viability, T/C",[23],6.09%
same,"viability, T/C",[24],4.97%
same,"viability, T/C",[25],19.7%
same,"viability, T/C",[26],23.3%
same,"viability, T/C",[27],19.9%
same,"viability, T/C",[28],17.6%
same,"viability, T/C",[29],6.44%
same,"viability, T/C",[30],16%
same,"viability, T/C",[31],19.7%
same,"viability, T/C",[32],22.5%
same,"viability, T/C",[33],21.7%
same,"viability, T/C",[34],17.4%
same,"viability, T/C",[35],7.34%
same,"viability, T/C",[36],4.74%
same,"viability, T/C",[37],27.4%
same,"viability, T/C",[38],23.8%
same,"viability, T/C",[39],19.8%
same,"viability, T/C",[40],13.2%
same,"viability, T/C",[41],7.33%
same,"viability, T/C",[42],3.62%
C#Cc1c(F)ccc2cc(O)cc(-c3ncc4c(N5CC6CCC(C5)N6)nc(OCC56CCCN5CC(F)C6)nc4c3F)c12 (stereo not drawn),"viability, T/C",compound 0.0316 µM,126% and 105%
same,"viability, T/C",compound 0.1 µM,74% and 131%
same,"viability, T/C",compound 0.316 µM,116% and 80.9%
same,"viability, T/C",compound 1 µM,81.9% and 122%
same,"viability, T/C",compound 3.16 µM,60% and 100%
same,"viability, T/C",compound 10 µM,62.3% and 79.4%
same,IC50,curve of compound,> 10000 nM
CC(CO)NC(=O)c1cc(-c2ccc(Cl)cc2)nn(-c2cnn(C)c2)c1=O (stereo not drawn),"viability, T/C",compound 0.0316 µM,119% and 99.1%
same,"viability, T/C",compound 0.1 µM,68.1% and 82.7%
same,"viability, T/C",compound 0.316 µM,102% and 165%
same,"viability, T/C",compound 1 µM,108% and 100%
same,"viability, T/C",compound 3.16 µM,79.3% and 88.4%
same,"viability, T/C",compound 10 µM,42.8% and 52.4%
same,IC50,curve of compound,7960 nM and > 10000 nM
C#Cc1c(F)ccc2cc(O)cc(-c3ncc4c(N5CC6CCC(C5)N6)nc(OCC56CCCN5CC(F)C6)nc4c3F)c12 (stereo not drawn) + CNC(=O)c1ccc(Nc2nc(OC3CCCC3)c3c(-c4ccc5nc(C)oc5c4)c[nH]c3n2)c(OC)c1,IC50,[1],< 31.6 nM
same,IC50,[2],< 31.6 nM
same,IC50,[3],< 31.6 nM
same,IC50,[4],< 31.6 nM
same,IC50,[5],< 31.6 nM
same,IC50,[6],34.4 nM
same,"viability, T/C",[7],34.1%
same,"viability, T/C",[8],43.8%
same,"viability, T/C",[9],24.7%
same,"viability, T/C",[10],22.7%
same,"viability, T/C",[11],19.7%
same,"viability, T/C",[12],17.7%
same,"viability, T/C",[13],27%
same,"viability, T/C",[14],26.2%
same,"viability, T/C",[15],22.1%
same,"viability, T/C",[16],29.4%
same,"viability, T/C",[17],26%
same,"viability, T/C",[18],30.8%
same,"viability, T/C",[19],33.1%
same,"viability, T/C",[20],20.1%
same,"viability, T/C",[21],23.5%
same,"viability, T/C",[22],33.7%
same,"viability, T/C",[23],25.6%
same,"viability, T/C",[24],15.5%
same,"viability, T/C",[25],23.1%
same,"viability, T/C",[26],18.2%
same,"viability, T/C",[27],19%
same,"viability, T/C",[28],38%
same,"viability, T/C",[29],24.4%
same,"viability, T/C",[30],10%
same,"viability, T/C",[31],24.8%
same,"viability, T/C",[32],20.4%
same,"viability, T/C",[33],23%
same,"viability, T/C",[34],20.9%
same,"viability, T/C",[35],20.8%
same,"viability, T/C",[36],10.5%
same,"viability, T/C",[37],52.5%
same,"viability, T/C",[38],20.1%
same,"viability, T/C",[39],22.6%
same,"viability, T/C",[40],18.4%
same,"viability, T/C",[41],17.7%
same,"viability, T/C",[42],9.34%
